This is an account of results in PubChem BioAssay AID330 (DTP/NCI, 2004).

This experiment deals with P388 leukemia ip, CD2F1 mice, survival T/C. As to the kind of experiment: NCI In Vivo Anticancer Drug Screen. Data for tumor model P388 Leukemia (intraperitoneal) in CD2F1 (CDF1) mice. Conditions: endpoint: median survival time, higher = longer survival. In outline:
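Mice carrying the transplanted tumor received test compound or vehicle. Survival was recorded in each group, and the value is the treated-group measurement divided by that of the vehicle-treated control group.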

[1] abbreviates: dose: 32.0 mg/kg/injection, schedule: Q01DX009 (ip), vehicle: Klucel (hydroxypropylcellulose) (HPC).
Where [2] appears, read: dose: 64.0 mg/kg/injection, schedule: Q01DX009 (ip), vehicle: Klucel (hydroxypropylcellulose) (HPC).
Setting [3] is: dose: 50.0 mg/kg/injection, schedule: Q01DX009 (ip), vehicle: saline.
The mark [4] stands for this setting: dose: 100.0 mg/kg/injection, schedule: Q01DX009 (ip), vehicle: saline.
[5] abbreviates: dose: 200.0 mg/kg/injection, schedule: Q01DX009 (ip), vehicle: saline.
The mark [6] stands for this setting: dose: 60.0 mg/kg/injection, schedule: Q01DX005 (ip), vehicle: saline with Tween-80.
[7] abbreviates: dose: 120.0 mg/kg/injection, schedule: Q01DX005 (ip), vehicle: saline with Tween-80.
Setting [8] is: dose: 240.0 mg/kg/injection, schedule: Q01DX005 (ip), vehicle: saline with Tween-80.
Setting [9] is: dose: 100.0 mg/kg/injection, schedule: Q04DX003 (ip), vehicle: saline.
Setting [10] is: dose: 60.0 mg/kg/injection, schedule: Q01DX005 (ip), vehicle: Klucel (hydroxypropylcellulose) (HPC).
[11] abbreviates: dose: 120.0 mg/kg/injection, schedule: Q01DX005 (ip), vehicle: Klucel (hydroxypropylcellulose) (HPC).
The mark [12] stands for this setting: dose: 240.0 mg/kg/injection, schedule: Q01DX005 (ip), vehicle: Klucel (hydroxypropylcellulose) (HPC).
Setting [13] is: dose: 100.0 mg/kg/injection, schedule: Q01DX009 (ip), vehicle: saline with Tween-80.
[14] abbreviates: dose: 200.0 mg/kg/injection, schedule: Q01DX009 (ip), vehicle: saline with Tween-80.

Where “and” joins values, the source holds several entries; their conditions need not be identical. Equal entries are not always repeated. Inconclusive results and toxic doses are left out.

On to `C=C1C(=O)O[C@H]2C[C@@H]1C(=O)C/C(C)=C/CC/C(C)=C/CC[C@@]2(C)OCSC`, for which the T/C is, setting by setting: (dose: 8.0 mg/kg/injection, schedule: Q01DX009 (ip), vehicle: Klucel (hydroxypropylcellulose) (HPC)) 116 % of control; (dose: 16.0 mg/kg/injection, schedule: Q01DX009 (ip), vehicle: Klucel (hydroxypropylcellulose) (HPC)) 103 % of control; under setting [1], 111 % of control; under setting [2], 92 % of control.
For `CC(C)(C)c1cc(C(=O)O)c(Br)c(C(=O)O)c1`, the T/C is 97 % of control under setting [3], 102 % of control under setting [4] and 100 % of control under setting [5].
Turning to `Cc1ccc2ccccc2c1N(CC(=O)O)S(=O)(=O)c1ccccc1` (tested in a mixture with another compound), the T/C is, setting by setting: (dose: 12.5 mg/kg/injection, schedule: Q01DX001 (ip), vehicle: saline with Tween-80) 110 % of control; (dose: 25.0 mg/kg/injection, schedule: Q01DX001 (ip), vehicle: saline with Tween-80) 105 % of control; (dose: 50.0 mg/kg/injection, schedule: Q01DX001 (ip), vehicle: saline with Tween-80) 110 % of control.
On to `CCCCNC(=O)N(CC)c1ccccc1`, for which the T/C (dose: 100.0 mg/kg/injection, schedule: Q01DX001 (ip), vehicle: saline) was 109 % of control; the T/C (dose: 200.0 mg/kg/injection, schedule: Q01DX001 (ip), vehicle: saline) was 113 % of control; the T/C (dose: 400.0 mg/kg/injection, schedule: Q01DX001 (ip), vehicle: saline) is 109 % of control.
Turning to `COc1cc(OC)c(C2SCC(=O)N2c2nnc(C(F)(F)F)s2)cc1OC` (stereo unspecified), the T/C was 100 % of control under setting [6], 99 % of control under setting [7] and 98 % of control under setting [8].
For the compound `CCOC(OCC)c1ccc(C)cc1`, the T/C (dose: 100.0 mg/kg/injection, schedule: Q04DX003 (ip), vehicle: saline with Tween-80) was 103 % of control; the T/C (dose: 200.0 mg/kg/injection, schedule: Q04DX003 (ip), vehicle: saline with Tween-80) was 108 % of control; the T/C (dose: 400.0 mg/kg/injection, schedule: Q04DX003 (ip), vehicle: saline with Tween-80) was 97 % of control.
`O=C(CCS(=O)O)c1cccs1`: the T/C is 99 % of control under setting [9]; 96 % of control (dose: 200.0 mg/kg/injection, schedule: Q04DX003 (ip), vehicle: saline); 92 % of control (dose: 400.0 mg/kg/injection, schedule: Q04DX003 (ip), vehicle: saline).
Take `O=c1cc[nH]c(=O)[nH]1`: the T/C under setting [1] was 99 % of control and 106 % of control; the T/C (dose: 32.0 mg/kg/injection, schedule: Q01DX009 (ip), vehicle: saline with Tween-80) is 114 % of control; the T/C under setting [2] was 98 % of control and 100 % of control; the T/C (dose: 64.0 mg/kg/injection, schedule: Q01DX009 (ip), vehicle: saline with Tween-80) is 100 % of control; the T/C under setting [4] was 98 % of control; the T/C (dose: 128.0 mg/kg/injection, schedule: Q01DX009 (ip), vehicle: Klucel (hydroxypropylcellulose) (HPC)) was 99 % of control and 102 % of control. Moreover, the T/C runs as follows: (dose: 128.0 mg/kg/injection, schedule: Q01DX009 (ip), vehicle: saline with Tween-80) 95 % of control; under setting [5], 100 % of control; (dose: 256.0 mg/kg/injection, schedule: Q01DX009 (ip), vehicle: Klucel (hydroxypropylcellulose) (HPC)) 100 % of control and 109 % of control; (dose: 256.0 mg/kg/injection, schedule: Q01DX009 (ip), vehicle: saline with Tween-80) 100 % of control; (dose: 400.0 mg/kg/injection, schedule: Q01DX009 (ip), vehicle: saline) 102 % of control; (dose: 512.0 mg/kg/injection, schedule: Q01DX009 (ip), vehicle: Klucel (hydroxypropylcellulose) (HPC)) 108 % of control and 109 % of control. Further, the T/C (dose: 512.0 mg/kg/injection, schedule: Q01DX009 (ip), vehicle: saline with Tween-80) is 97 % of control.
With `O=C(Nc1ccc(Br)cc1)Oc1ccc(Cl)cc1C(=O)c1ccccc1`, the T/C reads like this: under setting [10], 105 % of control; under setting [11], 105 % of control; under setting [12], 108 % of control.
With `O=C(NCCCN1CC1)C(=O)NCCCN1CC1`, the T/C runs as follows: (dose: 0.78 mg/kg/injection, schedule: Q01DX009 (ip), vehicle: saline) 156 % of control; (dose: 1.56 mg/kg/injection, schedule: Q01DX009 (ip), vehicle: saline) 190 % of control; (dose: 3.13 mg/kg/injection, schedule: Q01DX009 (ip), vehicle: saline) 190 % of control.
Take `COc1cccc(CC(=O)NCCc2ccc(OC)c(OC)c2)c1`: the T/C is 100 % of control under setting [13]; 100 % of control under setting [14]; 104 % of control (dose: 400.0 mg/kg/injection, schedule: Q01DX009 (ip), vehicle: saline with Tween-80).
Turning to `CCOC(=O)c1n[nH]nc1Nc1cncc(Nc2n[nH]nc2C(=O)OCC)n1`, the T/C under setting [10] is 102 % of control, the T/C under setting [11] is 97 % of control and the T/C under setting [12] is 97 % of control.
Take `C/C(NN(C)C)=C(\C#N)C(=O)/C=C/c1cccs1`: the T/C is 105 % of control under setting [6], 98 % of control under setting [7] and 96 % of control under setting [8].
In the case of `CN(C)CCS(=O)(=O)O`, the T/C (dose: 1.56 mg/kg/injection, schedule: Q04DX003 (ip), vehicle: saline) was 100 % of control; the T/C (dose: 3.12 mg/kg/injection, schedule: Q04DX003 (ip), vehicle: saline) is 100 % of control; the T/C (dose: 6.25 mg/kg/injection, schedule: Q04DX003 (ip), vehicle: saline) is 88 % of control; the T/C (dose: 12.5 mg/kg/injection, schedule: Q04DX003 (ip), vehicle: saline) is 94 % of control; the T/C (dose: 50.0 mg/kg/injection, schedule: Q04DX003 (ip), vehicle: saline) is 97 % of control; the T/C under setting [9] was 102 % of control.
As for `O=C1CC2(CCCC2)C(=O)N1c1ccccc1O`, the T/C (dose: 25.0 mg/kg/injection, schedule: Q01DX009 (ip), vehicle: saline) is 103 % of control; the T/C (dose: 50.0 mg/kg/injection, schedule: Q01DX009 (ip), vehicle: Klucel (hydroxypropylcellulose) (HPC)) is 118 % of control and 94 % of control; the T/C under setting [3] was 96 % of control; the T/C (dose: 100.0 mg/kg/injection, schedule: Q01DX009 (ip), vehicle: Klucel (hydroxypropylcellulose) (HPC)) is 100 % of control; the T/C under setting [4] was 96 % of control; the T/C (dose: 200.0 mg/kg/injection, schedule: Q01DX009 (ip), vehicle: Klucel (hydroxypropylcellulose) (HPC)) was 100 % of control. In addition, the T/C under setting [5] is 96 % of control.
With `CC1=C(C#N)C(C)(C)C(C#N)=C(C)N1C`, the T/C runs as follows: (dose: 25.0 mg/kg/injection, schedule: Q01DX009 (ip), vehicle: other) 110 % of control; (dose: 50.0 mg/kg/injection, schedule: Q01DX009 (ip), vehicle: other) 111 % of control; (dose: 50.0 mg/kg/injection, schedule: Q01DX009 (ip), vehicle: saline with Tween-80) 102 % of control; (dose: 100.0 mg/kg/injection, schedule: Q01DX009 (ip), vehicle: other) 121 % of control; under setting [13], 98 % of control.
Take `CC(=O)Nc1nnc(-c2cc(=O)c3cc(C)ccc3o2)s1`: the T/C (dose: 50.0 mg/kg/injection, schedule: Q01DX005 (ip), vehicle: saline with Tween-80) was 92 % of control; the T/C (dose: 100.0 mg/kg/injection, schedule: Q01DX005 (ip), vehicle: saline with Tween-80) is 91 % of control; the T/C (dose: 200.0 mg/kg/injection, schedule: Q01DX005 (ip), vehicle: saline with Tween-80) is 90 % of control.
Turning to `COC1OC2COC(c3ccccc3)OC2C(OS(=O)(=O)c2ccc(C)cc2)C1OS(=O)(=O)c1ccc(C)cc1` (stereo unspecified), the T/C by setting is: (dose: 6.25 mg/kg/injection, schedule: Q01DX009 (ip), vehicle: saline with Tween-80) 114 % of control; (dose: 12.5 mg/kg/injection, schedule: Q01DX009 (ip), vehicle: saline with Tween-80) 114 % of control; (dose: 25.0 mg/kg/injection, schedule: Q01DX009 (ip), vehicle: saline with Tween-80) 108 % of control and 111 % of control; under setting [13], 87 % of control; under setting [14], 91 % of control.
